# Where a SMILES comes first, the peptide text is derived from it. The star is where a group is joined. Cbz = O=C(OCc1ccccc1)*
# What was measured:
# Assay type in all cases: cell-based
# human iPSC-neurons [1] = assay: Detection of protein aggregates on neuronal microtubules; conditions: 4° C. for 4 h, pre-incubation
# Procedure: After treatments, cultured neurons were fixed with 4% paraformaldehyde for 10 minutes and then permeabilized and washed with 0.1% Triton X-100 in phosphate buffered saline. Protein aggregates were visualized by a dye that intercalates into the denatured and aggregated proteins and becomes fluorescent (Proteostat aggresome detection kit, Enzo, Farmingdale, N.Y.; see Table 2) (Shen, 2011). For accumulation of protein aggregates on the neuronal microtubules, cells were stained with TUBB3 antibody and the protein aggregate dye, and images (188.94 μm×188.94 μm) were taken. In each image, the number of protein aggregates residing on the microtubules was counted and divided by the total length of the TUBB3+ microtubule paths.
# human iPSC-neurons [2] = assay: Evaluation of neuronal microtubule stability in response to cold (tubulin immunofluorescence, TUBB3+ microtubule tracing)
# Procedure: The temperature-dependent experiments in this study were performed at ambient CO2 concentration, which required the use of hibernate-medium (Table 2) to maintain the physiological pH. Experiments were conducted by first incubating cultured neurons (human iPSC-derived, GS iPSC-derived, GS primary, or rat primary cultures) in hibernate-medium for 30 min at room temperature. During this time (pre-incubation), drug treatments (see Other Reagents, Table 1) were introduced to test cold resistance and microtubule stability. The cell culture dishes were then kept in an ambient 37° C. incubator, or in a 4° C. refrigerator. […] The pH of hibernate-medium was stable and maintained the pH between 7.0 and 7.4 even after 16-h incubation at 4° C.
# Cultured neurons or rat retinal explants with or without treatments were fixed with 4% paraformaldehyde, permeabilized and washed with 0.1% Triton X-100 in phosphate buffered saline, and stained by antibodies against TUBB3. TUBB3+ microtubule paths in images of 188.94×188.94 μm^2 from human iPSC-derived neuronal cultures and images of 67.48×67.48 μm^2 from rat whole-mount retinas were traced with the ‘Simple Neurite Tracer’ plugin in ImageJ.
# [3] = system: rat retinal ganglion cells (RGCs); assay: Multielectrode array (MEA) recordings of RGC activity in cold-exposed rat retina explants; conditions: 4° C. for 4 h, Taxol 10 μM
# Procedure: All experiments were carried out under dim red light. Rat retina explants were removed and cut into smaller pieces in hibernate-medium, and divided into different treatment groups for pre-incubation with drugs promoting microtubule stability or a DMSO vehicle control at room temperature for 30 minutes. The cold-exposed groups were incubated in the refrigerator, while the fresh control samples were incubated on the bench in dark at room temperature. […] After 4- or 24-hour incubation, the cold-exposed retinal explants were placed on the bench for 10-15 minutes, and washed twice with fresh hibernate-medium. Retinal explants from all groups were then transferred to oxygenated (95% O2/5% CO2) bicarbonate-buffered AMES medium at room temperature. The sclera and RPE were removed prior to flat mounting the neural retina with the ganglion cell (RGC)-side facing down onto the MEA.
# During MEA recording, the neural retinas were perfused with 95% O2/5% CO2-balanced AMES perfusion at 37° C. to measure the spontaneous firing activity of the rat RGCs over the course of 15 minutes. […] For MEA data processing and analyses, the firing spikes of RGCs were first filtered and recorded in MC Rack with a high-pass filter set at 200 Hz, a low-pass filter set at 3000 Hz, and the automatic standard deviation for spike detection threshold was set at −6. […]
# human iPSC-neurons [4] = assay: Live cell imaging of lysosomes using Magic Red and DND-26 (lysosomal membrane permeabilization, LMP); conditions: 4-h at 4° C.
# Procedure: GS and Human iPSC-derived neuronal cultures were prepared in duplicate and incubated with hibernate-medium containing Magic Red (1:1000; ImmunoChemistry Technologies, Bloomington, Minn.) at 37° C. for 25 min, followed by the addition of LysoTracker Green DND-26 (50 nM; Thermo Fisher, Waltham, Mass.; see Table 1) for 5 min. The dye-containing medium was then replaced with fresh hibernate-medium, and one group of cultures was incubated at 4° C. for 1, 4 or 16 h, while the other group remained at 37° C. serving as normal controls. The cold-exposed group was subjected to confocal imaging at various temperatures (10° C., room temperature, or 37° C.), while the control group was imaged at either room temperature or 37° C. […] Magic Red becomes fluorescent after being cleaved by the lysosomal protease cathepsin B, while DND-26 is an acidotropic probe that accumulates in the acidic lysosomal vesicles. When LMP occurs, Magic Red and DND-26 signals become diffused within the cytoplasm of the affected cells. It was determined that cells have LMP if they contain a single Magic Red-stained particle of diameter >5 μm, which is about the size of the neuronal cell nucleus.
compound,measurement,setting,value
CC(C)C[C@@H](C=O)NC(=O)[C@H](CC(C)C)NC(=O)[C@H](CC(C)C)NC(=O)OCc1ccccc1 [MG-132] (Cbz-Leu-Leu-Leu-aldehyde),protein aggregates along microtubule processes,human iPSC-neurons [1],did not show any further increase in aggregation
CCOC(=O)c1ccc(N2NC(=O)/C(=C/c3ccc([N+](=O)[O-])o3)C2=O)cc1 [PYR-41],microtubule morphology after pre-treatment with ubiquitination inhibitor,"human iPSC-neurons [2]; human iPSC-neurons, 4-h incubation at 4° C.",did not improve microtubule morphology
CC(=O)O[C@H]1C(=O)[C@@]2(C)[C@H]([C@H](OC(=O)c3ccccc3)[C@]3(O)C[C@H](OC(=O)[C@H](O)[C@@H](NC(=O)c4ccccc4)c4ccccc4)C(C)=C1C3(C)C)[C@]1(OC(C)=O)CO[C@@H]1C[C@@H]2O [Taxol],preservation of microtubules in cold,"human iPSC-neurons [2]; human iPSC-neurons at 4° C., 10 μM (FIG. 6B)",preserved microtubules in cold
same,"protection of neuronal microtubules, low dose","human iPSC-neurons [2]; human iPSC-neurons, 16-h cold exposure, 0.1 μM",did not protect
same,spontaneous RGC activity / firing rate distributions (MEA),[3],did not preserve RGC activity
"O=C1O[C@H]([C@@H](O)CO)C(O)=C1O [vitamin C, ascorbic acid]",LMP (number of cells containing diffuse Magic Red),human iPSC-neurons [4],alleviated LMP

# From patent US11547708B2, “Compositions and methods to protect mammalian tissue against cold and other metabolic stresses” (THE UNITED STATES OF AMERICA, AS REPRESENTED BY THE …, priority 2017, dated 2023)
